The text below walks through data of publication PMC4456360, “A Recombinant Fungal Lectin for Labeling Truncated Glycans on Human Cancer Cells” (PLoS ONE, 2015).

The subject of one test is A549 cells. Description: Flow cytometry, lectin binding to A549 cells (glycosylation inhibitors, glycosidases). The conditions noted are these: for Percentage of inhibition of MAH binding (mean fluorescence intensity): MAH 5 μg ml^-1; for Percentage of inhibition of rPVL binding (mean fluorescence intensity): biotinylated rPVL 1 μg ml^-1. The test is classed as cell-based, human. In general terms: Flow cytometry measures light scatter and fluorescence of single cells or particles in a stream.

Another test concerns HBEC-3KT cell line. It is filed as cell-based, human.
Test [1] relates to glandular compartment of the stomach and small intestine. The test is described as follows: Labeling of healthy tissues by biotinylated rPVL. The conditions noted are these: 100 mM GlcNAc.
Method: Ethanol-fixed human trachea, esophagus, duodenal junction, jejunum, colon, pancreas, liver, ovary, uterus and vagina samples were obtained from organ donors. 18 tissue samples from 10 different individuals were used to prepare a tissue microarray (TMA) of healthy tissues.
The tissue sections were deparaffinized, then endogenous peroxidases were blocked by incubating the sections with PBS containing 3% hydrogen peroxide (v/v), for 5 mn. The sections were then blocked with BSA 5% (w/v) for 30 min at room temperature, followed by incubation with 0,7–1 μg ml^-1 biotinylated rPVL 1h at room temperature (Ethanol-fixed sections) or 2 μg ml^-1 of biotinylated rPVL in PBS at 4°C for 18h (for formalin-fixed sections). After washing the sections twice with PBS, an indirect biotin-streptavidin system and DAB (Ventana Medical Systems) or AEC (Vector laboratories) detection kits were used according to the manufacturer’s instructions. The developed slides were washed twice with PBS and counterstained with hematoxylin. After washing with water, the sections were dehydrated and mounted. Sections were observed under a BX41 microscope equipped with a DP-70 digital camera system (Olympus, Tokyo, Japan) or imaged with a NanoZoomer slide-scanner (Hamamatsu, Hamamatsu City).
For another test, the system named is M119. More on the design: key to the marks not given beside the values. The settings on record: M119, Melanoma.

In the case of “3-fluoro-peracetyl-neuraminic acid [3F-NeuAc]”, the “Percentage of inhibition of MAH binding (mean fluorescence intensity)” value with A549 cells (A549 cells grown 4 days with 100 μM Fluoro-Neu5Ac) came to 75%. For the same molecule, in the test on A549 cells, the “Percentage of inhibition of rPVL binding (mean fluorescence intensity)” value was 59%.
On to `CC(=O)OC1O[C@@H](C)[C@@H](OC(C)=O)[C@@H](OC(C)=O)[C@@H]1F` (stereo partly shown) [2-FF, 2-fluoro-peracetyl fucose], for which the “Percentage of inhibition of MAH binding (mean fluorescence intensity)” value in the test with A549 cells (A549 cells grown 4 days with 400 μM 2-Fluoro-Fucose, listed as 2F-fucose) was “did not affect”. The “Percentage of inhibition of rPVL binding (mean fluorescence intensity)” value with A549 cells (listed as 2F-fucose) is listed as “did not affect”.
Turning to `CC(=O)N[C@@H]1[C@@H](O)[C@H](O)[C@@H](CO)O[C@H]1O` [GlcNAc, N-acetylglucosamine], the “inhibition of rPVL binding by GlcNAc (in words)” value in the test on HBEC-3KT cell line is on record as “complete inhibition”. Moreover, the “inhibition of rPVL staining by GlcNAc (in words)” value in test [1] is given as “partial inhibition”. Further, the “Inhibtion by GlcNac (of PVL staining)” value in the test on M119 is reported as “++”.
